{"source": "patent US8053442B2", "about": "“Organic compounds” (Novartis AG, priority 2008, dated 2011)", "key": {"[1]": {"tested_on": "Plasmodium falciparum, NF54 (sensitive to all known drugs)", "test": "In vitro assay, 3H-hypoxanthine incorporation, Plasmodium falciparum NF54", "type": "cell-based", "conditions": "NF54 (CQ sensitive P. falciparum strain)", "procedure": "The compounds of the invention and standard compounds are tested in vitro against two standard parasite strains: Plasmodium falciparum, NF54 (sensitive to all known drugs) and Plasmodium falciparum, K1 (chloroquine and pyrimethamine resistant). Chloroquine diphosphate (Sigma C6628), artemisinin (Sigma 36159-3), artesunate (Mepha), atovaquone (GSK) and proguanil (Roche) are used as the standard drugs. The testing is carried out in 96-well plates (Costar™ 96-well microtiter plates).\nSmears of the stock cultures of the two strains are prepared and the parasitemia for each culture is determined. Cultures with parasitemia lower than 2% are not used.\nStock compound solutions are prepared in DMSO at 10 mg/mL. If insoluble in DMSO, other solvents may be used according to the recommendations of the supplier. […]\nThe plates are harvested with a Betaplate™ cell harvester (Wallac, Zurich, Switzerland), which transfers the red blood cells onto a glass fiber filter and washes the filters with distilled water. The dried filters are inserted into a plastic foil with 10 mL of scintillation fluid and counted in a Betaplate™ liquid scintillation counter (Wallac, Zurich, Switzerland). The results are recorded as counts per minute (cpm) per well at each drug concentration.\nData is transferred into a graphic programme (e.g. EXCEL) and expressed as percentage of the untreated controls. […]"}, "[2]": {"tested_on": "Plasmodium berghei, GFP ANKA strain", "test": "In vivo assay, P. berghei mouse model", "conditions": "read-out: ED50 in P. berghei mouse model", "procedure": "The Plasmodium berghei, GFP ANKA strain described in B. Franke-Fayard et al., Mol. Biochem. Parasitol., 137(1), 23-33, 2004 is used. This strain is maintained in female NMRI mice (20-22 g). The mice are kept in Standard Macrolon cages type II under standard conditions at 22° C. and 60-70% relative humidity, on a diet of pellets (PAB45—NAFAG 9009, Provimi Kliba AG, CH-4303 Kaiseraugst, Switzerland) and water ad libitu. Chloroquine (Sigma C6628) and artemisinin (Sigma 36, 159-3) are used as the standard drugs.\nStock compound solutions are prepared in 100% DMSO (suspended) or a solution consisting of 70% Tween-80 (d=1.08 g/mL) and 30% ethanol (d=0.81 g/mL), followed by a 10-fold dilution in H2O. […]\nOn days 1, 2 and 3 (24, 48 and 72 hours post-infection), the experimental groups are treated with a single daily dose per oral dosing (p.o). […] The dosage is determined by a preliminary toxicity test. […]\nOn day 4, 24 hours after the last drug treatment, 1 μL tail blood is taken and dissolved in 1 mL PBS buffer. Parasitaemia is determined with a FACScan (Becton Dickinson) by counting 100,000 red blood cells. The difference between the mean value of the control group and those of the experimental groups is calculated and expressed as a percentage relative to the control group (=activity). […] The survival of the animals is monitored for up to 30 days. […]"}}, "data": [{"smiles": "C[C@@H]1Cc2c([nH]c3cc(Cl)c(F)cc23)[C@]2(N1)C(=O)Nc1ccc(Cl)cc12", "note": "[Example 50, (1S,3R)-5′,7-Dichloro-6-fluoro-3-methyl-2,3,4,9-tetrahydrospiro[β-carboline-1,3′-indol]-2′(1′H)-one]", "values": [{"measurement": "IC50", "setting": "[1]", "value": 0.9, "unit": "nM"}, {"measurement": "ED50", "setting": "[2]", "value": 1.2, "unit": "mg/kg"}]}, {"smiles": "C[C@H]1Cc2c([nH]c3ccc(Cl)cc23)[C@@]2(N1)C(=O)Nc1ccc(Cl)cc12", "note": "[Example 62, (1R,3S)-5′,6-Dichloro-3-methyl-2,3,4,9-tetrahydrospiro[β-carboline-1,3′-indol]-2′(1′H)-one]", "values": [{"measurement": "IC50", "setting": "[1]", "value": 3.4, "unit": "nM"}, {"measurement": "ED50", "setting": "[2]", "value": 1.5, "unit": "mg/kg"}]}]}
